Experimental data from patent publication US12478624B2, “Heterocyclic derivatives, pharmaceutical compositions and their use in the treatment or amelioration of cancer” (Tolremo Therapeutics AG, priority 2019, dated 2025).

Key:
A375 cells = assay: Assay 1: A375 cells treated with S1152, S1008 and compound, immunofluorescence (sc-365823) signal; type: cell-based; conditions: 1 μM S1152 + 0.5 μM S1008, one day
Method: One thousand four hundred A375 cells were seeded in each well of a 384 well microplate. One day later they were treated with 1 μM S1152 (Selleckchem) in dimethyl sulfoxide, 0.5 μM S1008 (Selleckchem) and dose ranges of invention compounds for one day in Dulbecco's Modified Eagle's Medium supplemented with 10% fetal calf serum and 2 mM (2S)-2-amino-4-carbamoylbutanoic acid. Wells were incubated with 4% polyoxymethylene (Sigma Aldrich 158127) at ambient temperature. […] After one minute phosphate-buffered saline was replaced with 0.2% polyethylene glycol octylphenyl ether in phosphate-buffered saline. […] 1% aminoethanoic acid in phosphate-buffered saline was added for ten minutes at ambient temperature. […] After one hour at ambient temperature in the dark, signal in wells was measured with a Acumen Cellista. 3,8-Diamino-5-[3-(diethylmethylammonio)propyl]-6-phenylphenanthridinium diiodide-positive objects were defined in FL3 (565-600 nm) with a perimeter between 50-800 μm and a total intensity of 10000-1000000 FLU. Signal in FL2 (500-530 nm) was measured in defined objects. A normalized ratio of total In FL2 over total In FL3 staining was log transformed. A non-linear regression (variable slope, 4 parameters) was used to calculate EC50 values using GraphPad Prism (Version 7.0d).
In an alternative procedure, assay 1 has been affected by changing the counteratain. […] Cells were incubated with 0.5 μg/ml 2-(4-Amidinophenyl)-6-indolecarbamidine dihydrochloride, 4′,6-Diamidino-2-phenylindole dihydrochloride (Sigma D9542) in phosphate-buffered saline for at least 30 minutes at ambient temperature in the dark. A Celigo Imager (Nexcelom) was used to acquire images in the blue and green channel. The blue channel was used as a mask to define the area for the green signal. The average integrated intensity of the green signal was normalized and a non-linear regression (variable slope, 4 parameter) was used to calculate the EC50 values using GraphPad Prism (Version 8.4)

OPM-2 = assay: Assay 2: multiple myeloma cellular efficacy, PrestoBlue cell proliferation/survival; type: cell-based; conditions: Homo sapiens, 96 h, OPM-2 cells, 4 days
Method: Multiple Myeloma Cellular Efficacy:
10000 OPM-2 (ACC50; DSMZ) were plated into wells of a 384 well plate (Greiner 781090). Cells were treated for 4 days with a dose range of compound or vehicle. At the end of the experiment cells were stained directly with PrestoBlue (ThermoFisher Scietific; A13262) for 2 hours at 37° C. in a humidified incubator according to manufactor's instruction. To assess the relative cell number the PrestoBlue signal was measured using either a TecanM1000Pro reader or a Tecan Sparks reader following the manufactor's instructions. Background (no cells) values were subtracted and set in relation to the vehicle control. To assess the EC50 of each compound the relative fluorescence value was plotted against the compound concentration after log transformation. Data were fitted in a nonlinear manner with a variable slope (four parameters) using graphpad prism software. Cellular efficacy of compounds was evaluated in the multiple myeloma cell line OPM-2 using the cell proliferation/survival assay PrestoBlue. EC50 values are classified as indicated below.

Structure (SMILES) | EC50 (A375 cells) | EC50 (OPM-2)
CC(=O)Nc1cc(F)cc(Nc2cc(-c3cccnc3)nc([C@@H]3CC[C@H](C)N(C(C)=O)C3)n2)c1 [Compound 00047, N-(3-((2-((3R,6S)-1-acetyl-6-methylpiperidin-3-yl)-6-(pyridin-3-yl)pyrimidin-4-yl)amino)-5-fluorophenyl)acetamide] | < 200 nM | < 200 nM
CC(=O)N1C[C@H](c2nc(Nc3cccc4c3cnn4C)cc(-c3cnccn3)n2)CC[C@@H]1C [Compound 00049, 1-((2S,5R)-2-methyl-5-(4-((1-methyl-1H-indazol-4-yl)amino)-6-(pyrazin-2-yl)pyrimidin-2-yl)piperidin-1-yl)ethan-1-one] | < 200 nM | < 200 nM
CC(=O)N1C[C@H](c2nc(Nc3cccc4nn(C)cc34)cc(-c3cnccn3)n2)CC[C@@H]1C [Compound 00050, 1-((2S,5R)-2-methyl-5-(4-((2-methyl-2/−/−indazol-4-yl)amino)-6-(pyrazin-2-yl)pyrimidin-2-yl)piperidin-1-yl)ethan-1-one] | < 200 nM | 200 to 1000 nM
CC(=O)N1C[C@H](c2nc(Nc3cccc4c3CC(=O)N4)cc(-c3cccnc3)n2)CC[C@@H]1C [Compound 00051, 4-((2-((3R,6S)-1-acetyl-6-methylpiperidin-3-yl)-6-(pyridin-3-yl)pyrimidin-4-yl)amino)indolin-2-] | 200 to 1000 nM | 1000 to 10000 nM
CC(=O)N1C[C@H](c2nc(Nc3cccc(-c4ncn(C)n4)c3)cc(-c3cccnc3)n2)CC[C@@H]1C [Compound 00052, 1-((2S,5R)-2-methyl-5-(4-((3-(1-methyl-1H-1,2,4-triazol-3-yl)phenyl)amino)-6-(pyridin-3-yl)pyrimidin-2-yl)piperidin-1-yl)ethan-1-one] | < 200 nM | < 200 nM
CC(=O)Nc1cccc(Nc2cc(-c3cccnc3)nc([C@@H]3CC[C@H](C)N(C(C)=O)C3)n2)c1 [Compound 00054, N-(3-((2-((3R,6S)-1-acetyl-6-methylpiperidin-3-yl)-6-(pyridin-3-yl)pyrimidin-4-yl)amino)phenyl)acetamide] | < 200 nM | < 200 nM
CC(=O)N1C[C@H](c2nc(Nc3cc(-c4cnn(C)c4)cc(C(F)F)c3)cc(-c3cnccn3)n2)CC[C@@H]1C [Compound 00055, 1-((2S,5R)-5-(4-((3-(difluoromethyl)-5-(1-methyl-1Hpyrazol-4-yl)phenyl)amino)-6-(pyrazin-2-yl)pyrimidin-2-yl)-2-methylpiperidin-1-yl)ethan-1-one] | < 200 nM | < 200 nM
CC(=O)N1C[C@H](c2nc(Nc3cccc4c3cnn4C)cc(-c3cccnc3)n2)CC[C@@H]1C [Compound 00056, 1-((2S,5R)-2-methyl-5-(4-((1-methyl-1H-indazol-4-yl)amino)-6-(pyridin-3-yl)pyrimidin-2-yl)piperidin-1-yl)ethan-1-one] | < 200 nM | < 200 nM
CC(=O)N1C[C@H](c2nc(Nc3cc(-c4cnn(C)c4)cc(C(F)F)c3)cc(-c3cccnc3)n2)CC[C@@H]1C [Compound 00057, 1-((2S,5R)-5-(4-((3-(difluoromethyl)-5-(1-methyl-1H-pyrazol-4-yl)phenyl)amino)-6-(pyridin-3-yl)pyrimidin-2-yl)-2-methylpiperidin-1-yl)ethan-1-one] | < 200 nM | < 200 nM
CC(=O)N1C[C@H](c2nc(Nc3cccc(C(C)(F)F)c3)cc(-c3cccnc3)n2)CC[C@@H]1C [Compound 00058, 1-((2S,5R)-5-(4-((3-(1,1-difluoroethyl)phenyl)amino)-6-(pyridin-3-yl)pyrimidin-2-yl)-2-methylpiperidin-1-yl)ethan-1-one] | < 200 nM | 200 to 1000 nM
CC(=O)Nc1cc(Nc2cc(-c3cnccn3)nc([C@@H]3CC[C@H](C)N(C(C)=O)C3)n2)cc(C(F)F)c1 [Compound 00059, N-(3-((2-((3R,6S)-1-acetyl-6-methylpiperidin-3-yl)-6-(pyrazin-2-yl)pyrimidin-4-yl)amino)-5-(difluoromethyl)phenyl)acetamide] | < 200 nM | < 200 nM
CC(=O)Nc1cc(Nc2cc(-c3cccnc3)nc([C@@H]3CC[C@H](C)N(C(C)=O)C3)n2)cc(C(F)F)c1 [Compound 00060, N-(3-((2-((3R,6S)-1-acetyl-6-methylpiperidin-3-yl)-6-(pyridin-3-yl)pyrimidin-4-yl)amino)-5-(difluoromethyl)phenyl)acetamide] | 200 to 1000 nM | < 200 nM
CC(=O)N1C[C@H](c2nc(Nc3cccc(-c4nnn(C)n4)c3)cc(-c3cccnc3)n2)CC[C@@H]1C [Compound 00062, 1-((2S,5R)-2-methyl-5-(4-((3-(2-methyl-2H-tetrazol-5-yl)phenyl)amino)-6-(pyridin-3-yl)pyrimidin-2-yl)piperidin-1-yl)ethan-1-one] | < 200 nM | < 200 nM
CC(=O)N1C[C@H](c2nc(Nc3cccc(-n4cnnn4)c3)cc(-c3cccnc3)n2)CC[C@@H]1C [Compound 00063, 1-((2S,5R)-5-(4-((3-(1H-tetrazol-1-yl)phenyl)amino)-6-(pyridin-3-yl)pyrimidin-2-yl)-2-methylpiperidin-1-yl)ethan-1-one] | < 200 nM | 200 to 1000 nM
CC(=O)N1C[C@H](c2nc(Nc3cccc(-c4noc(C)n4)c3)cc(-c3cnccn3)n2)CC[C@@H]1C [Compound 00064, 1-((2S,5R)-2-methyl-5-(4-((3-(5-methyl-1,2,4-oxadiazol-3-yl)phenyl)amino)-6-(pyrazin-2-yl)pyrimidin-2-yl)piperidin-1-yl)ethan-1-one] | < 200 nM | < 200 nM
COc1cc(F)cc(Nc2cc(-c3cnccn3)nc([C@@H]3CC[C@H](C)N(C(C)=O)C3)n2)c1 [Compound 00067, 1-((2S,5R)-5-(4-((3-fluoro-5-methoxyphenyl)amino)-6-(pyrazin-2-yl)pyrimidin-2-yl)-2-methylpiperidin-1-yl)ethan-1-one] | < 200 nM | < 200 nM
CC(=O)N1C[C@H](c2nc(Nc3cccc(-c4cn(C)nn4)c3)cc(-c3cnccn3)n2)CC[C@@H]1C [Compound 00068, 1-((2S,5R)-2-methyl-5-(4-((3-(1-methyl-1H-1,2,3-triazol-4-yl)phenyl)amino)-6-(pyrazin-2-yl)pyrimidin-2-yl)piperidin-1-yl)ethan-1-one] | < 200 nM | < 200 nM
CC(=O)N1C[C@H](c2nc(Nc3cc(F)cc(N4CCOCC4)c3)cc(-c3cnccn3)n2)CC[C@@H]1C [Compound 00070, 1-((2S,5R)-5-(4-((3-fluoro-5-morpholinophenyl)amino)-6-(pyrazin-2-yl)pyrimidin-2-yl)-2-methylpiperidin-1-yl)ethan-1-one] | < 200 nM | < 200 nM
CC(=O)N1C[C@H](c2nc(Nc3cccc(-n4ccc(C)n4)c3)cc(-c3cccnc3)n2)CC[C@@H]1C [Compound 00077, 1-((2S,5R)-2-methyl-5-(4-((3-(3-methyl-1H-pyrazol-1-yl)phenyl)amino)-6-(pyridin-3-yl)pyrimidin-2-yl)piperidin-1-yl)ethan-1-one] | < 200 nM | 200 to 1000 nM
CC(=O)N1C[C@H](c2nc(Nc3cccc(-n4cncn4)c3)cc(-c3cccnc3)n2)CC[C@@H]1C [Compound 00078, 1-((2S,5R)-5-(4-((3-(1H-1,2,4-triazol-1-yl)phenyl)amino)-6-(pyridin-3-yl)pyrimidin-2-yl)-2-methylpiperidin-1-yl)ethan-1-one] | < 200 nM | < 200 nM
CC(=O)N1C[C@H](c2nc(Nc3cccc(NC(=O)c4ccccc4)c3)cc(-c3cccnc3)n2)CC[C@@H]1C [Compound 00079, N-(3-((2-((3R,6S)-1-acetyl-6-methylpiperidin-3-yl)-6-(pyridin-3-yl)pyrimidin-4-yl)amino)phenyl)benzamide] | < 200 nM | < 200 nM
CC(=O)N1C[C@H](c2nc(Nc3cccc(F)c3)cc(-c3cccnc3)n2)CC[C@@H]1C [Compound 00080, 1-((2S,5R)-5-(4-((3-fluorophenyl)amino)-6-(pyridin-3-yl)pyrimidin-2-yl)-2-methylpiperidin-1-yl)ethan-1-one] | < 200 nM | 200 to 1000 nM
CC(=O)N1C[C@H](c2nc(Nc3cccc(-n4ccnn4)c3)cc(-c3cccnc3)n2)CC[C@@H]1C [Compound 00083, 1-((2S,5R)-5-(4-((3-(1H-1,2,3-triazol-1-yl)phenyl)amino)-6-(pyridin-3-yl)pyrimidin-2-yl)-2-methylpiperidin-1-yl)ethan1-one] | < 200 nM | 200 to 1000 nM
